Measured values published in patent US8436031B2 (priority 2004, dated 2013).

Key:
SoxS = SoxS (Escherichia coli, UniProt P0A9E2); assay: Chemiluminescence DNA binding assay, SoxS; set-up: species or system E. coli; details: for EC50 for SoxS compared with ARD: relative to ARD; for EC50: E. coli SoxS, DNA binding
PqrA = PqrA (Proteus mirabilis, UniProt B4ETM4); assay: Chemiluminescence DNA binding assay, PqrA; details: P. mirabilis PqrA
SlyA = SlyA (Salmonella typhimurium, UniProt P40676); assay: Chemiluminescence DNA binding assay, SlyA (MarR protein control); set-up: species or system S. typhimurium
Rma = Rma (Salmonella typhimurium, UniProt H9L484); assay: Chemiluminescence DNA binding assay, Rma; set-up: species or system S. typhimurium
Rob = Rob (Escherichia coli, UniProt P0ACI0); assay: Chemiluminescence DNA binding assay, Rob; details: E. coli Rob
ExsA = ExsA (Pseudomonas aeruginosa, UniProt P26993); assay: Chemiluminescence DNA binding assay, ExsA; set-up: species or system P. aeruginosa
MarA [1] = target: T1, MarA (Escherichia coli, UniProt P0ACH5); assay: Chemiluminescence DNA binding assay, MarA; details: E. coli MarA
Target sequence in this assay (P0ACH5 whole entry): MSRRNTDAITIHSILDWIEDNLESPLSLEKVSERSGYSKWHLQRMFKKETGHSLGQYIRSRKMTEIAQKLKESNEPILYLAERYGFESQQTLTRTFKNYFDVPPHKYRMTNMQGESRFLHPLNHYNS

LcrF (VirF) = LcrF (VirF) (Yersinia pseudotuberculosis, UniProt Q663J0); assay: biochemical; type: binding, Y. pseudotuberculosis
[2] = In vivo toxicity, repeat dose experiments; details: mice; subcutaneous 25 mg/Kg, two doses on day 1, single dose on days 2-5
Experimental: The in vivo toxicity of Mar inhibitors ATB, BAB, BAF, BBP and BBS were investigated in repeat dose experiments. Mice were given two subcutaneous doses (25 mg/Kg) of a Mar inhibitor on day 1 and a single dose of the compound on days 2-5.

MarA [3] = target: T1, MarA; assay: Selective marker (ccdB) under MarA-activated promoter; cell survival under MarA expression (Example 2); type: cell-based; set-up: key: *: good inhibition of MarA; **: very good inhibition of MarA; details: inhibition of MarA; cell survival under conditions of MarA expression
Excerpt: In this example, the expression of a selective marker (e.g., ccdB) is put under the direct control of a promoter activated by MarA (e.g., inaA, galT, or micF). In the absence of MarA, the expression of the selective marker is silent and cells survive. Synthesis of MarA from an inducible plasmid in a bacterial or yeast cell leads to the activation of the inaA promoter, expression of ccdB, and subsequently results in cell death. Compounds that inhibit MarA are those that permit cell survival under conditions of MarA expression. In Table 4, * indicates good inhibition of MarA and ** indicates very good inhibition of MarA.
Target sequence in this assay (P0ACH5 whole entry, looked up): as the sequence (P0ACH5 whole entry) above

Rma, sequence (H9L484 whole entry): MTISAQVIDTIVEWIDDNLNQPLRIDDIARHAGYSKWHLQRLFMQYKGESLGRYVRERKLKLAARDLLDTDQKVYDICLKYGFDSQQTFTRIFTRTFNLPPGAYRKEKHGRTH
SlyA, sequence (P40676 whole entry): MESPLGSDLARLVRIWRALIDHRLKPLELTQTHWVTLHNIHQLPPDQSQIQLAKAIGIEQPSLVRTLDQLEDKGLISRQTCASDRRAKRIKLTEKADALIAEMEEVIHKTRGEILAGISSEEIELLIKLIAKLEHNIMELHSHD
ExsA, sequence (P26993 whole entry): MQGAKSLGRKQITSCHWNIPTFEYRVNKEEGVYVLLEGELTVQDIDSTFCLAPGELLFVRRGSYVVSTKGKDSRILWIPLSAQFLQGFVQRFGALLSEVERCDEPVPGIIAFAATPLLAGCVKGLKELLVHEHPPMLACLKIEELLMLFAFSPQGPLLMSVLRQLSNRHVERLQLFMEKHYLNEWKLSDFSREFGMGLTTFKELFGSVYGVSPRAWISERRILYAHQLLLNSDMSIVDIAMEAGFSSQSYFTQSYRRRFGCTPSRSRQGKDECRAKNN
SoxS, sequence (P0A9E2 whole entry): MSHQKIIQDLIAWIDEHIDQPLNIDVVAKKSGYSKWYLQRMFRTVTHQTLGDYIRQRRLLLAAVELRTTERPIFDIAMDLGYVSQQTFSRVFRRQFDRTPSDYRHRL
Rob, sequence (P0ACI0 whole entry): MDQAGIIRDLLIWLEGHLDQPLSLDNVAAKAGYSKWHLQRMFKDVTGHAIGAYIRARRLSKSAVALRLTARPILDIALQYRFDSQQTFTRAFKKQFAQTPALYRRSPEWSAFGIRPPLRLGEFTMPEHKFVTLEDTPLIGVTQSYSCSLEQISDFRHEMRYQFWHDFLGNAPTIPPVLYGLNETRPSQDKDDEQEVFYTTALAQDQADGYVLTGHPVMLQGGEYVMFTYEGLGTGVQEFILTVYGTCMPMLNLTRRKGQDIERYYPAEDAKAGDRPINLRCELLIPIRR
LcrF (VirF), sequence (Q663J0 1-271): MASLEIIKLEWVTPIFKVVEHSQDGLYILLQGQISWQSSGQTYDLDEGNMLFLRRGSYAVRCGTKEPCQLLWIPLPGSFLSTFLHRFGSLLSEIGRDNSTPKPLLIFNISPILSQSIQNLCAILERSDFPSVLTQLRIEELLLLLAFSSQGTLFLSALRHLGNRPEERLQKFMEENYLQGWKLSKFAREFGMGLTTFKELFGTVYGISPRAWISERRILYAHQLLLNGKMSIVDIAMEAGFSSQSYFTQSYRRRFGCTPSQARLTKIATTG
PqrA, sequence (B4ETM4 entry or part of it): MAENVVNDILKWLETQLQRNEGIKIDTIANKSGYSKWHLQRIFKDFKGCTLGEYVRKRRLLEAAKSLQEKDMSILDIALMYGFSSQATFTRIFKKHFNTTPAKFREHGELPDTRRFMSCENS

COc1cccc(-c2nc3ccc([N+](=O)[O-])cc3n2O)c1 [ANU]
EC50 for SoxS compared with ARD (SoxS): higher than that of ARD

O=[N+]([O-])c1ccc2nc(-c3ccoc3)n(O)c2c1 [AOW]
EC50 for SoxS compared with ARD (SoxS): higher than that of ARD

O=[N+]([O-])c1ccc2nc(-c3ccco3)n(O)c2c1 [AOX]
EC50 for SoxS compared with ARD (SoxS): higher than that of ARD

NC(=O)c1ccc2nc(-c3ccccc3)n(O)c2c1 [APJ]
EC50 for SoxS compared with ARD (SoxS): higher than that of ARD

O=C(Nc1ccc(-c2nc3ccc([N+](=O)[O-])cc3n2O)cc1)c1ccccc1 [AQQ]
EC50 for SoxS compared with ARD (SoxS): higher than that of ARD

O=[N+](O)c1cccc2c1nc(-c1ccco1)n2O [AQV]
EC50 for SoxS compared with ARD (SoxS): higher than that of ARD

CN(C)c1ccc(-c2nc3ccc([N+](=O)[O-])cc3n2O)cc1 [ARB]
EC50 for SoxS compared with ARD (SoxS): higher than that of ARD

O=[N+]([O-])c1ccc2nc(-c3ccc(-c4ccccc4)o3)n(O)c2c1 [ARD]
EC50 (SoxS): 8.3 µM
EC50 (PqrA): 13.6 µM
EC50 (SlyA): 11.9 µM
EC50 (Rma): 17 µM
EC50 (Rob): 28 µM
EC50 (ExsA): 15.6 µM
EC50 (MarA [1]): 11.7 µM

COc1ccc(C(=O)Nc2ccc(-c3nc4ccc([N+](=O)[O-])cc4n3O)cc2)cc1 [ASR]
EC50 (LcrF (VirF)): 18.3 µM

O=C(NCc1ccc(-c2nc3ccc([N+](=O)[O-])cc3n2O)cc1)c1ccccc1 [ASS]
EC50 for SoxS compared with ARD (SoxS): higher than that of ARD

O=C(Nc1ccc(-c2nc3ccc([N+](=O)[O-])cc3n2O)cc1)c1ccc(Cl)cc1 [AST]
EC50 for SoxS compared with ARD (SoxS): higher than that of ARD

O=C(Nc1ccc(-c2nc3ccc([N+](=O)[O-])cc3n2O)cc1)c1ccc(F)cc1 [ASU]
EC50 (SoxS): 3 µM
EC50 (SlyA): 51 µM
EC50 (Rma): 4.9 µM
EC50 (Rob): 4.7 µM
EC50 (LcrF (VirF)): 17.7 µM
EC50 (ExsA): 4 µM

O=C(Nc1ccc(-c2nc3ccc([N+](=O)[O-])cc3n2O)cc1)c1cccc(Cl)c1 [ASX]
EC50 (SoxS): 4.9 µM
EC50 (SlyA): 21.7 µM
EC50 (Rma): 3.5 µM
EC50 (Rob): 3.4 µM
EC50 (ExsA): 2.5 µM

Cc1ccc(C(=O)Nc2ccc(-c3nc4ccc([N+](=O)[O-])cc4n3O)cc2)cc1 [ATB]
EC50 (SoxS): 2.7 µM
in vivo toxicity [2]: No overt signs of toxicity
EC50 (Rob): 7.4 µM
EC50 (LcrF (VirF)): 15.5 µM
EC50 (ExsA): 4 µM

CN(C)c1ccc(C(=O)Nc2ccc(-c3nc4ccc([N+](=O)[O-])cc4n3O)cc2)cc1 [ATE]
EC50 (SoxS): 0.82 µM
EC50 (PqrA): 1.4 µM
EC50 (SlyA): 14.3 µM
EC50 (Rma): 1.8 µM
EC50 (Rob): 1.3 µM
EC50 (LcrF (VirF)): 36.5 µM
EC50 (ExsA): 1.9 µM
EC50 (MarA [1]): 1.2 µM

N#Cc1ccc(C(=O)Nc2ccc(-c3nc4ccc([N+](=O)[O-])cc4n3O)cc2)cc1 [BAB]
in vivo toxicity [2]: No overt signs of toxicity

CC(=O)c1ccc(C(=O)Nc2ccc(-c3nc4ccc([N+](=O)[O-])cc4n3O)cc2)cc1 [BAF]
in vivo toxicity [2]: No overt signs of toxicity

O=C(/C=C/c1ccc(F)cc1)Nc1ccc(-c2nc3ccc([N+](=O)[O-])cc3n2O)cc1 [BBP]
in vivo toxicity [2]: No overt signs of toxicity
EC50 (LcrF (VirF)): 7.1 µM

O=C(Nc1ccc(-c2nc3ccc([N+](=O)[O-])cc3n2O)cc1)c1cccc(F)c1 [BBS]
in vivo toxicity [2]: No overt signs of toxicity
EC50 (LcrF (VirF)): 29 µM

Cc1cccc(C(=O)Nc2ccc(-c3nc4ccc([N+](=O)[O-])cc4n3O)cc2)c1 [BBT]
EC50 (LcrF (VirF)): 27.5 µM

Cc1ccccc1C(=O)Nc1ccc(-c2nc3ccc([N+](=O)[O-])cc3n2O)cc1 [BBV]
EC50 (LcrF (VirF)): > 57.9 µM

O=C(Nc1ccc(-c2nc3ccc([N+](=O)[O-])cc3n2O)cc1)c1ccccc1F [BBW]
EC50 (LcrF (VirF)): > 57.3 µM

Cc1ccc(/C=C/C(=O)Nc2ccc(-c3nc4ccc([N+](=O)[O-])cc4n3O)cc2)cc1 [BCK]
EC50 (LcrF (VirF)): 0.8 µM

COc1ccc(/C=C/C(=O)Nc2ccc(-c3nc4ccc([N+](=O)[O-])cc4n3O)cc2)cc1 [BCL]
EC50 (LcrF (VirF)): 5.1 µM

O=C(/C=C/c1ccc(F)cc1F)Nc1ccc(-c2nc3ccc([N+](=O)[O-])cc3n2O)cc1 [BCO]
EC50 (LcrF (VirF)): 2.2 µM

CCCCSc1nnc2c(n1)OC(c1ccc(OCC)cc1)Nc1ccccc1-2 (stereo not drawn) [J, 3-Butylsulfanyl-6-(4-ethoxy-phenyl)-6,7-dihydro-5-oxa-1,2,4,7-tetraaza-dibenzo[a,c]cycloheptene]
MarA inhibition score (cell survival) (MarA [3]): *

CCCSc1nnc2c(n1)OC(c1ccc(OC)cc1)Nc1ccccc1-2 (stereo not drawn) [K, 6-(4-Methoxy-phenyl)-3-propylsulfanyl-6,7-dihydro-5-oxa-1,2,4,7-tetraaza-dibenzo[a,c]cycloheptene]
MarA inhibition score (cell survival) (MarA [3]): *

CCCSc1nnc2c(n1)OC(c1ccc(-c3cccc([N+](=O)[O-])c3)o1)Nc1ccccc1-2 (stereo not drawn) [L, 6-[5-(3-Nitro-phenyl)-furan-2-yl]-3-propylsulfanyl-6,7-dihydro-5-oxa-1,2,4,7-tetraaza-dibenzo[a,c]cycloheptene]
MarA inhibition score (cell survival) (MarA [3]): **

O=c1/c(=C/c2c[nH]nc2-c2ccccc2)sc2nc3ccccc3n12 [M, 2-(3-Phenyl-1H-pyrazol-4-ylmethylene)-benzo[4,5]imidazo[2,1-b]thiazol-3-one]
MarA inhibition score (cell survival) (MarA [3]): **

CCOC(=O)C1=C(C)N=c2s/c(=C\c3ccc(-c4cccc(C(=O)O)c4)o3)c(=O)n2C1c1c(OC)ccc2ccccc12 (stereo not drawn) [N, 2-[5-(3-Carboxy-phenyl)-furan-2-ylmethylene]-5-(2-methoxy-naphthalen-1-yl)-7-methyl-3-oxo-2,3-dihydro-5H-thiazolo[3,2-a]pyrimidine-6-carboxylic acid ethyl ester]
MarA inhibition score (cell survival) (MarA [3]): **

CCOC(=O)C1=C(C)N=c2sc(=Cc3ccc(-c4ccc([N+](=O)[O-])cc4C)o3)c(=O)n2C1c1ccc2c(c1)OCO2 (stereo not drawn) [P, 5-Benzo[1,3]dioxol-5-yl-7-methyl-2-[5-(2-methyl-4-nitro-phenyl)-furan-2-ylmethylene]-3-oxo-2,3-dihydro-5H-thiazolo[3,2-a]pyrimidine-6-carboxylic acid ethyl ester]
MarA inhibition score (cell survival) (MarA [3]): *

CCOC(=O)C1=C(C)N=c2s/c(=C/c3ccc(-c4cccc(C(F)(F)F)c4)o3)c(=O)n2C1c1ccccc1 (stereo not drawn) [U, 7-Methyl-3-oxo-5-phenyl-2-[5-(3-trifluoromethyl-phenyl)-furan-2-ylmethylene]-2,3-dihydro-5H-thiazolo[3,2-a]pyrimidine-6-carboxylic acid ethyl ester]
MarA inhibition score (cell survival) (MarA [3]): **

CCOC(=O)C1=C(C)N=c2s/c(=C\c3ccc(-c4cccc(C(=O)O)c4)o3)c(=O)n2C1c1ccc(N(C)C)cc1 (stereo not drawn) [W, 2-[5-(3-Carboxy-phenyl)-furan-2-ylmethylene]-5-(4-dimethylamino-phenyl)-7-methyl-3-oxo-2,3-dihydro-5H-thiazolo[3,2-a]pyrimidine-6-carboxylic acid ethyl ester]
MarA inhibition score (cell survival) (MarA [3]): **

CCOC(=O)C1=C(C)N=c2s/c(=C/c3ccc(-c4ccc(C)c([N+](=O)[O-])c4)o3)c(=O)n2C1c1ccc(N(C)C)cc1 (stereo not drawn) [X, 5-(4-Dimethylamino-phenyl)-7-methyl-2-[5-(4-methyl-3-nitro-phenyl)-furan-2-ylmethylene]-3-oxo-2,3-dihydro-5H-thiazolo[3,2-a]pyrimidine-6-carboxylic acid ethyl ester]
MarA inhibition score (cell survival) (MarA [3]): **

O=C1C=Cc2ccccc2/C1=N\Oc1ccc2noc3c2c1C(=O)c1ccccc1-3 [Z, [1,2]Naphthoquinone 1-[O-(6-oxo-6H-anthra[1,9-cd]isoxazol-5-yl)-oxime]]
MarA inhibition score (cell survival) (MarA [3]): *
